Measurements reported in article PMC12470154, “In Vitro Evaluation of Antimicrobial Amyloidogenic Peptides for the Treatment of Early and Mature Bacterial Biofilms” (International Journal of Molecular Sciences, 2025).

Legend:
E. coli (MG1655 strain) [1] = experiment: Antibacterial activity on 0.7% agar (inhibition zone); type: cell-based, Escherichia coli; set-up: key: +: The presence of a bacterial growth inhibition zone; −: The absence of a bacterial growth inhibition zone; settings: drop on 0.7% agar, 24 h
Experimental: (§1) Drops of the samples were applied to the surface of solidified 0.7% agar at the concentrations indicated in Table 2 and Supplementary S2 (Figures S1–S4). After 24 h of incubation, the results were evaluated based on the presence or absence (+/−) of inhibition zones.
(§2) Once the agar solidified, drops of peptide samples at the concentrations 1, 0.1, 0.01, and 0.001 mg/mL were applied to the agar surface.

[2] = system: P. aeruginosa (2943 strain); experiment: Early biofilm formation, MTT assay; type: cell-based, Pseudomonas aeruginosa; set-up: key: ↓: Decrease in the parameter (optical density) compared to the negative control; −: No decrease in the parameter; ↑: Reverse effect (increase in the optical density compared to the control); settings: 24 h, 0.3% MTT 2 h 37 °C, OD 595 nm
Experimental: (§3) After 24 h of incubation, the medium was removed. To assess the total biofilm biomass, the wells were rinsed with sterile PBS solution and stained with 0.1% crystal violet. The dye bound to the surface was then removed using 95% ethanol. To assess the presence of metabolically active cells, 0.3% MTT (PanEco Ltd., Moscow, Russia) solution was added to each well, and the plates were incubated at 37 °C for 2 h. After incubation, the MTT solution was removed, 150 µL of DMSO (Chimmed, Moscow, Russia) and 25 µL of glycine buffer were added to each well, and the plates were left at room temperature for 15 min. The resulting solutions were transferred to a flat-bottom 96-well plate, and optical density was measured at 595 nm.

MRSA (SA 180-F strain) [3] = experiment: Early biofilm formation, crystal violet staining; type: cell-based, methicillin-resistant Staphylococcus aureus; set-up: key: ↓: Decrease in the parameter (optical density) compared to the negative control; −: No decrease in the parameter; ↑: Reverse effect (increase in the optical density compared to the control); settings: peptide present from inoculation, 24 h, OD 595 nm
Experimental: as §3

S. aureus (129B strain) = experiment: Early biofilm formation, MTT assay; type: cell-based, Staphylococcus aureus; set-up: key: ↓: Decrease in the parameter (optical density) compared to the negative control; −: No decrease in the parameter; ↑: Reverse effect (increase in the optical density compared to the control); settings: 24 h, 0.3% MTT 2 h 37 °C, OD 595 nm
Experimental: as §3

MRSA (SA 180-F strain) [4] = experiment: Mature biofilms, MTT assay; type: cell-based, methicillin-resistant Staphylococcus aureus; set-up: key: ↓: Decrease in the parameter (optical density) compared to the negative control; −: No decrease in the parameter; ↑: Reverse effect (increase in the optical density compared to the control); settings: mature biofilm: peptide added after 24 h, further 24 h; 0.01-10 mg/mL
Experimental: as §3
(§4) A stationary-phase culture of the tested strain was diluted 100-fold in fresh medium (200 µL per well) and added to the wells of a 96-well round-bottom plate. […] After another 24 h, the medium was removed and the wells were rinsed with sterile PBS to eliminate planktonic cells. The procedures for assessing total biofilm biomass and cell metabolic activity using crystal violet and MTT assays were performed in the same manner as described above for early-stage biofilm experiments.

E. coli (MG1655 strain) [5] = experiment: Early biofilm formation, MTT assay; type: cell-based, Escherichia coli; set-up: key: ↓: Decrease in the parameter (optical density) compared to the negative control; −: No decrease in the parameter; ↑: Reverse effect (increase in the optical density compared to the control); settings: 24 h, 0.3% MTT 2 h 37 °C, OD 595 nm
Experimental: as §3

[6] = system: P. aeruginosa (2943 strain); experiment: Mature biofilms, MTT assay; type: cell-based, Pseudomonas aeruginosa; settings: mature biofilm
Experimental: as §3, §4

MRSA (SA 180-F strain) [7] = experiment: Antibacterial activity on 0.7% agar (inhibition zone); type: cell-based, methicillin-resistant Staphylococcus aureus; set-up: key: +: The presence of a bacterial growth inhibition zone; −: The absence of a bacterial growth inhibition zone; settings: drop on 0.7% agar, 24 h
Experimental: as §1, §2

MRSA (SA 180-F strain) [8] = experiment: Mature biofilms, crystal violet staining; type: cell-based, methicillin-resistant Staphylococcus aureus; set-up: key: ↓: Decrease in the parameter (optical density) compared to the negative control; −: No decrease in the parameter; ↑: Reverse effect (increase in the optical density compared to the control); settings: mature biofilm: peptide added after 24 h, further 24 h, 0.01-10 mg/mL
Experimental: as §3, §4

MRSA (SA 180-F strain) [9] = experiment: Antibacterial activity in liquid medium (optical density); type: cell-based, methicillin-resistant Staphylococcus aureus; set-up: key to change of optical density vs negative control: ↓: Decrease in the parameter (optical density) compared to the negative control; −: No decrease in the parameter; ↑: Reverse effect (increase in the optical density compared to the control); settings: 24 h, 37 °C; for change of optical density vs negative control: OD 595 nm
Experimental: To evaluate the antibacterial activity of peptides in liquid culture, a stationary-phase culture of the tested bacterial strain was diluted 100-fold in fresh medium containing peptides or gentamicin (positive control) at the specified concentrations. A total volume of 200 µL was added to each well of a 96-well round-bottom microtiter plate. After 24 h of incubation at 37 °C, the samples were transferred to a flat-bottom 96-well microtiter plate, and the optical density was measured at 595 nm. Separately, the optical density of medium containing peptides but no bacteria was measured. These values were used as baseline (zero) readings for subsequent data analysis.

[10] = system: P. aeruginosa (2943 strain); experiment: Mature biofilms, MTT assay; type: cell-based, Pseudomonas aeruginosa; set-up: key: ↓: Decrease in the parameter (optical density) compared to the negative control; −: No decrease in the parameter; ↑: Reverse effect (increase in the optical density compared to the control); settings: mature biofilm: peptide added after 24 h, further 24 h; 0.01-10 mg/mL
Experimental: as §3, §4

Sequence | bacterial growth inhibition zone (E. coli (MG1655 strain) [1]; 0.001 mg/mL) | bacterial growth inhibition zone (E. coli (MG1655 strain) [1]; 0.01 mg/mL) | bacterial growth inhibition zone (E. coli (MG1655 strain) [1]; 0.1 mg/mL) | bacterial growth inhibition zone (E. coli (MG1655 strain) [1]; 1 mg/mL) | change of optical density after crystal violet staining vs negative control (MRSA (SA 180-F strain) [3]) | change of optical density after MTT assay vs negative control (S. aureus (129B strain)) | change of optical density after MTT assay vs negative control (MRSA (SA 180-F strain) [4]) | residual viability of cells (MTT) [6] | bacterial growth inhibition zone (MRSA (SA 180-F strain) [7]; 0.001 mg/mL) | bacterial growth inhibition zone (MRSA (SA 180-F strain) [7]; 0.01 mg/mL) | bacterial growth inhibition zone (MRSA (SA 180-F strain) [7]; 0.1 mg/mL) | bacterial growth inhibition zone (MRSA (SA 180-F strain) [7]; 1 mg/mL) | change of optical density after crystal violet staining vs negative control (MRSA (SA 180-F strain) [8]) | concentration given with ↓ (decrease in optical density) (MRSA (SA 180-F strain) [9]) [mg/mL] | change of optical density vs negative control (MRSA (SA 180-F strain) [9]) | change of optical density after MTT assay vs negative control [10] | change of optical density after MTT assay vs negative control (E. coli (MG1655 strain) [5]) | further results
RKKRRQRRRGGGGVVVHINGGKFGGGGSRQIKIWFQNRRMKWKK [R44K^S] | − | − | − | − | ↓ (1 mg/mL) | ↑ | ↓ (0.01 mg/mL) | did not inhibit | − | − | − | + | ↑ | 0.1 | ↓ (0.1 mg/mL) | ↑ |  | change of optical density after MTT assay vs negative control ([2]; listed as R44K^P): ↓ (10 mg/mL); change of optical density after crystal violet staining vs negative control (MRSA (SA 180-F strain) [3]; listed as R44K^P): ↓ (10 mg/mL); change of optical density after MTT assay vs negative control (E. coli (MG1655 strain) [5]; listed as R44K^P): ↑; bacterial growth inhibition zone (MRSA (SA 180-F strain) [7]; 1 mg/mL, listed as R44K^P): −
VTDFGVFVEIGGGGSRQIKIWFQNRRMKWKK [V31K^T, amyloidogenic fragment of S1 of T. thermophilus linked via glycine-rich linker to antennapedia peptide] | − | − | − | − | ↑ | ↑ | ↓ (0.01 mg/mL) | did not inhibit | − | − | − | − |  | 1 | ↓ (1 mg/mL) | ↑ |  | bacterial growth inhibition zone (E. coli (MG1655 strain) [1]; 1 mg/mL, listed as V31K^S): +; change of optical density after MTT assay vs negative control ([2]; listed as V31K^S): ↓ (10 mg/mL); change of optical density after crystal violet staining vs negative control (MRSA (SA 180-F strain) [3]; listed as V31K^S): ↓ (10 mg/mL); change of optical density after crystal violet staining vs negative control (MRSA (SA 180-F strain) [8]; listed as V31K^S): ↑; change of optical density vs negative control (MRSA (SA 180-F strain) [9]; listed as V31K^S): ↓ (0.1 mg/mL); concentration given with ↓ (decrease in optical density) (MRSA (SA 180-F strain) [9]; listed as V31K^S): 0.1 mg/mL
RKKRRQRRRGGGGVTDFGVFVEI [R23I^T, TAT cell-penetrating peptide linked via glycine linker to amyloidogenic fragment of S1 ribosomal protein of T. thermophilus] | − | − | − | − |  | ↑ |  | did not inhibit | − | − | − | + |  | 1 | ↓ (1 mg/mL) |  | ↑ | 
RKKRRQRRRGGGGITDFGIFIGL [R23L^P] | − | − | − | + | ↓ (10 mg/mL) | ↑ | ↓ (0.01 mg/mL) | did not inhibit | − | − | − | + |  | 0.1 | ↓ (0.1 mg/mL) | ↑ | ↑ | change of optical density after MTT assay vs negative control [2]: ↑
ITDFGIFIGLGGGGSRQIKIWFQNRRMKWKK [I31K^P] |  |  |  |  |  | ↑ | ↓ (0.01 mg/mL) |  |  |  |  |  | ↑ | 1 | ↓ (1 mg/mL) | ↑ | ↑ | 
